Test results from patent US9839642B2, “Beta-tetrazolyl-propionic acids as metallo-beta-lactamase inhibitors” (priority 2014, dated 2017).
Read-outs that look alike come from different tables or passages of the source.

How the values were obtained:
NDM-1 = NDM-1 (Klebsiella pneumoniae, UniProt C7C422); test: Enzyme activity: determination of IC50, fluorescence assay with CCF2-FA substrate; format: biochemical; settings: CCF2-FA 1.25 μM, 2 hours at 25° C., read-out: NDM1 IC50
How it was run: (§1)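 Enzyme at 1 pM (NDM-1), 2 pM (IMP-1) or 30 pM (VIM-1) was incubated with inhibitor (20 μM to 0.00063 μM) and 1.25 μM CCF2-FA in 100 mM KH2PO4 pH 7, 0.005% Tween-20, 10 μM ZnSO4 for 2 hours at 25° C. Fluorescence was read at ex 405/em 460 nm; IC50 from 4-parameter fit.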

VIM-1 = VIM-1 (Pseudomonas aeruginosa, UniProt A0A0F7KYQ8); test: as above; format: biochemical; settings: CCF2-FA 1.25 μM, 2 hours at 25° C., read-out: VIM1 IC50
How it was run: as §1

IMP-1 = IMP-1 (Serratia marcescens, UniProt P52699); test: as above; format: biochemical; settings: CCF2-FA 1.25 μM, 2 hours at 25° C., read-out: IMP1 IC50
How it was run: as §1

[1] = tested on: Escherichia coli expressing NDM-1 (CLB30016); test: Antibiotic potentiation activity: synergistic concentration (MITC95) with imipenem, growth by OD600; format: cell-based
How it was run: (§2)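 Colonies from overnight agar plates (35 °C) were suspended in saline and diluted 1:100 into 1.1× CAMHB. Inhibitor (final 200 μM to 0.195 μM) was combined with imipenem at 1 or 4 μg/ml, incubated 22–24 h at 35 °C, and absorbance read; MITC95 is the lowest inhibitor concentration giving 95% growth inhibition.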

[2] = tested on: Klebsiella pneumoniae expressing VIM-1 (IHMA599644); test: as above; format: cell-based
How it was run: as §2

[3] = tested on: Serratia marcescens expressing IMP-1 (CL5741); test: as above; format: cell-based
How it was run: as §2

[4] = 95% inhibition of bacterial growth, strain CLB30016
[5] = 95% inhibition of bacterial growth, strain IHMA599644
[6] = 95% inhibition of bacterial growth, strain CL5741
[7] = E. coli CLB30016 (NDM-1), 95% inhibition of growth
[8] = K. pneumoniae IHMA599644 (VIM-1), 95% inhibition of growth
[9] = S. marcescens CL5741 (IMP-1), 95% inhibition of growth

Sequence of IMP-1 (P52699 19-246, looked up, species assumed): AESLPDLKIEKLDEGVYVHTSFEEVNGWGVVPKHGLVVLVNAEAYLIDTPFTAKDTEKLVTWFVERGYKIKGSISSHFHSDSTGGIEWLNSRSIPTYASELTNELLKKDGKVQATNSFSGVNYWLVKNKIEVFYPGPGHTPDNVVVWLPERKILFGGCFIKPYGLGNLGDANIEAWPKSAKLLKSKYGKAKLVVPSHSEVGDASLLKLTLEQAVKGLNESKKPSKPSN
Sequence of NDM-1 (C7C422 29-270, looked up, species assumed): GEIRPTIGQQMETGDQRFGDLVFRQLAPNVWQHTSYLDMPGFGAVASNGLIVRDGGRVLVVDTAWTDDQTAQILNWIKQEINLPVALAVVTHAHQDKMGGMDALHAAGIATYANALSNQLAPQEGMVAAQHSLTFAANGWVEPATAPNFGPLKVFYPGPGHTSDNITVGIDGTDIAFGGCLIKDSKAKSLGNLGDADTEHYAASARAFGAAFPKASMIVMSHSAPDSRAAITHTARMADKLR

SMILES	IC50 (NDM-1; enzyme 1 pM) [nM]	IC50 (VIM-1; enzyme 30 pM) [nM]	IC50 (IMP-1; enzyme 2 pM) [nM]	NDM1 EC30016 MITC95 [1, 4] [µM]	VIM1 KP599644 MITC95 [2, 5] [µM]	IMP1 SM5741 MITC95 [3, 6] [µM]	IC50 (NDM-1; NDM-1 enzyme 1 pM) [nM]	IC50 (VIM-1; VIM-1 enzyme 30 pM) [nM]	IC50 (IMP-1; IMP-1 enzyme 2 pM) [nM]	NDM1 EC30016 MITC95 [1, 7] [µM]	VIM1 KP599644 MITC95 [2, 8] [µM]	IMP1 SM5741 MITC95 [3, 9] [µM]
CC(C)C[C@H](C(=O)O)[C@H](Cc1ccc(-c2ccc(CO)cc2)nc1)c1nn[nH]n1 [Example 177, (2S)-2-[(1S)-2-{6-[4-(hydroxymethyl)phenyl]pyridin-3-yl}-1-(2H-tetrazol-5-yl)ethyl]-4-methylpentanoic acid]	40	5.1	140	12.5	38	4.7						
CC(C)C[C@H](C(=O)O)[C@H](Cc1ccc(C2CCNCC2)cn1)c1nnn[nH]1 [Example 101, (S)-4-methyl-2-((S)-2-(5-(piperidin-4-yl)pyridin-2-yl)-1-(1H-tetrazol-5-yl)ethyl)pentanoic acid]	130	13	2000	1.6	18.8	18.8						
CC(C)C[C@H](C(=O)O)[C@H](Cc1ccc2cc(NCCO)cnc2c1)c1nnn[nH]1 [Example 133, (S)-2-((S)-2-(3-((2-hydroxyethyl)amino)quinolin-7-yl)-1-(1H-tetrazol-5-yl)ethyl)-4-methylpentanoic acid]	12	1.6	79	25	75	6.2						
CCC[C@H](C(=O)O)[C@H](C[C@@H](C)c1ccccc1)c1nnn[nH]1 [Example 265, (2S,3S,5R)-5-phenyl-2-propyl-3-(1H-tetrazol-5-yl)hexanoic acid]							130	24	1800	18.8	75	50
CCC[C@H](C(=O)O)[C@H](Cc1cccc(-c2cccnc2)c1)c1nn[nH]n1 [Example 339, (2S)-2-[(1S)-2-(3-pyridin-3-ylphenyl)-1-(2H-tetrazol-5-yl)ethyl]pentanoic acid]							3.6	1.4	160	18.8	38	6.2
CC(C)C[C@H](C(=O)O)[C@H](Cc1ccc(N2CC3(CNC(=O)C3)C2)nc1)c1nnn[nH]1 [Example 328, (2S)-4-methyl-2-[(1S)-2-[6-(7-oxo-2,6-diazaspiro[3.4]oct-2-yl)pyridin-3-yl]-1-(1H-tetrazol-5-yl)ethyl]pentanoic acid]							260	12	1100	9.4	50	50
CCC[C@H](C(=O)O)[C@H](Cc1cccc(-c2ccnc(N)c2)c1)c1nn[nH]n1 [Example 349, (2S)-2-[(1S)-2-[3-(2-aminopyridin-4-yl)phenyl]-1-(2H-tetrazol-5-yl)ethyl]pentanoic acid]							11	1.3	140	9.4	12.5	3.9
CC(C)[C@H](C(=O)O)[C@H](Cc1ccc(-c2cn[nH]c2)cc1)c1nnn[nH]1 [Example 62, (2S,3S)-4-(4-(1H-pyrazol-4-yl)phenyl)-2-isopropyl-3-(1H-tetrazol-5-yl)butanoic acid]	6.5	6.9	66	9.4	18.8	6.2						
CC(C)C[C@H](C(=O)O)[C@H](Cc1ccc(Oc2ccccn2)nc1)c1nn[nH]n1 [Example 391, (2S)-4-methyl-2-[(1S)-2-[6-(pyridin-2-yloxy)pyridin-3-yl]-1-(2H-tetrazol-5-yl)ethyl]pentanoic acid]							44	52	640	25	100	25
